The values below come from US20070173488A1, “Pyrazolothiazole Protein Kinase Modulators” (SGX Pharmaceuticals, Inc., priority 2005, published 2007).

The structures appear in SMILES notation.

This experiment deals with T1, T315I Abl (Mus musculus, UniProt P00520, T315I).
T1 construct: The c-Abl T315I KD (kinase domain) was purified as follows; made in house; host or cells: E. coli BL21(DE3) pSA0145 (lambda phosphatase co-expression) or BL21(DE3)Codon+RIL
T1 sequence (P00520 242-493 T315I limits assumed): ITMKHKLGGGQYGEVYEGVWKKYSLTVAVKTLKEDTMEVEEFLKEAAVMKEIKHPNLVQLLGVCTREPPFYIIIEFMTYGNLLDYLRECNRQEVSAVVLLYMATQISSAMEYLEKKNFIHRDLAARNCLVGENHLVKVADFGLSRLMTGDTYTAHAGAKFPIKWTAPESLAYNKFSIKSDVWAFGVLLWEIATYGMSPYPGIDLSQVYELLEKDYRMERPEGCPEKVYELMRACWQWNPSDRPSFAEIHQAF
The experiment is described as follows: cAbl Luminescence-based Enzyme Assay (Kinase-Glo). The format is biochemical. The source says:
Homogeneous luminescence-based inhibitor screening assays were developed for c-Abl, MET, AurA, and PDK1 kinases (among others). Each of these assays made use of an ATP depletion assay (Kinase-Glo™, Promega Corporation, Madison, Wis.) to quantitate kinase activity. The Kinase-Glo™ format uses a thermostable luciferase to generate luminescent signal from ATP remaining in solution following the kinase reaction. The luminescent signal is inversely correlated with the amount of kinase activity.
Dose response was analyzed using the equation: y=min+{(max−min)/(1 +10^[compound]-logIC50)}, where y is the observed initial slope, max=the slope in the absence of inhibitor, min=the slope at infinite inhibitor, and the IC50 is the [compound] that corresponds to ½ the total observed amplitude (Amplitude=max−min).
An open-reading frame for c-Abl was amplified from a Mus musculus (mouse) cDNA library prepared from freshly harvested mouse liver using a commercially available kit (Invitrogen) by PCR using the following primers: […]
The c-Abl T315I KD (kinase domain) was purified as follows. Cells were collected by centrifugation, lysed in diluted cracking buffer (50 mM Tris HCl, pH 7.5, 500 mM KCl, 0.1% Tween 20, 20 mM Imidazole, with sonication, and centrifuged to remove cell debris. The soluble fraction was purified over an IMAC column charged with nickel (Pharmacia, Uppsala, Sweden), and eluted under native conditions with a gradient of 20 mM to 500 mM imidazole in 50 mM Tris, pH7.8, 500 mM NaCl, 10 mM methionine, 10% glycerol. The protein was then further purified by gel filtration using a Superdex 75 preparative grade column equilibrated in GF5 buffer (10 mM HEPES, pH7.5, 10 mM methionine, 500 mM NaCl, 5 mM DTT, and 10% glycerol). Fractions containing the purified c-Abl T315I KD kinase domain were pooled. The protein obtained was 98% pure as judged by electrophoresis on SDS polyacrylamide gels. […] The protein was then dephosphorylated with Shrimp Alkaline Phosphatase (MBI Fermentas, Burlington, Canada) under the following conditions: 100U Shrimp Alkaline Phosphatase/mg of c-Abl T315I KD, 100 mM MgCl2, and 250 mM additional NaCl. The reaction was run overnight at 23° C. The protein was determined to be unphosphorylated by Mass spectroscopic analysis. Any precipitate was spun out and the soluble fraction was separated from reactants by gel filtration using a Superdex 75 preparative grade column equilibrated in GF4 buffer (10 mM HEPES, pH7.5, 10 mM methionine, 150 mM NaCl, 5 mM DTT, and 10% glycerol).
cAbl Luminescence-based Enzyme Assay
Materials: Abl substrate peptide=EAIYAAPFAKKK-OH (Biopeptide, San Diego, Calif.), ATP (Sigma Cat#A-3377, FW=551), HEPES buffer, pH 7.5, Bovine serum albumin (BSA) (Roche 92423420), MgCl2, Staurosporine (Streptomyces sp. Sigma Cat#85660-1MG), white Costar 384-well flat -bottom plate (VWR Cat#29444-088), Abl kinase (see below), Kinase-Glo™ (Promega Cat#V6712).
Stock Solutions: 10 mM Abl substrate peptide (13.4 mg/ml in miliQH2O) stored at −20° C.; 100 mM HEPES buffer, pH 7.5 (5 ml 1M stock+45ml miliQH2O); 10 mM ATP (5.51 mg/ml in dH2O) stored at −20° C. (diluted 50 μl into total of 10 ml miliQH2O daily =50 μM ATP working stock); 1% BSA (1 g BSA in 100 ml 0.1 M HEPES, pH 7.5, stored at −20° C.), 100 μM MgCl2; 200 μM Staurosporine, 2× Kinase-Glo™ reagent (made fresh or stored at −20° C.).
Standard Assay Setup for 384-well format (20 μl kinase reaction, 40 μl detection reaction): 10 mM MgCl2; 100 μM Abl substrate peptide; 0.1% BSA; 1 μl test compound (in DMSO); 0.4 μg/ml Abl kinase domain; 10 μM ATP; 100 mM HEPES buffer. Positive controls contained DMSO with no test compound. Negative controls contained 10 μM staurosporine.
The kinase reactions were initiated at time t=0 by the addition of ATP. Kinase reactions were incubated at 21° C. for 30 min, then 20 μl of Kinase-Glo™ reagent were added to each well to quench the kinase reaction and initiate the luminescence reaction. […]
On the technique in general: Kinase-Glo measures the ATP left after a reaction by luminescence.

By IC50 is commonly meant the concentration at which inhibition is half-maximal. The low end stands for greater potency, the high end for weaker potency.

`O=C(Nc1nc2[nH]nc(-n3cncc3-c3ccc4ccccc4c3)c2s1)C1CC1` [Cyclopropanecarboxylic acid [3-(5-naphthalen-2-yl-imidazol-1-yl)-1H-pyrazolo[3,4-d]thiazol-5-yl]-amide] displayed an IC50 of 1000 to 10000 nM. `O=C(Nc1nc2[nH]nc(-n3cncc3-c3ccccc3)c2s1)C1CC1` [Cyclopropanecarboxylic acid [3-(5-phenyl-imidazol-1-yl)-1H-pyrazolo[3,4-d]thiazol-5-yl]-amide] returned an IC50 of 100 to 1000 nM. The value for `O=C(Nc1nc2[nH]nc(-n3cncc3-c3ccccn3)c2s1)C1CC1` [Cyclopropanecarboxylic acid [3-(5-pyridin-2-yl-imidazol-1-yl)-1H-pyrazolo[3,4-d]thiazol-5-yl]-amide] was < 100 nM.

As for `O=C(Nc1nc2[nH]nc(-n3cncc3-c3c(Cl)ccc(Cl)c3Cl)c2s1)C1CC1` [Cyclopropanecarboxylic acid {3-[5-(2,3,6-trichloro-phenyl)-imidazol-1-yl]-1H-pyrazolo[3,4-d]thiazol-5-yl}-amide], the IC50 is < 100 nM.

Regarding `O=C(Nc1nc2[nH]nc(-n3cncc3-c3cccc(F)c3F)c2s1)C1CC1` [Cyclopropanecarboxylic acid {3-[5-(2,3-difluoro-phenyl)-imidazol-1-yl]-1H-pyrazolo[3,4-d]thiazol-5-yl}-amide], the 50% inhibitory concentration (IC50) is < 100 nM. Under `O=C(Nc1nc2[nH]nc(-n3cncc3-c3c(Cl)cccc3Cl)c2s1)C1CC1` [Cyclopropanecarboxylic acid {3-[5-(2,6-dichloro-phenyl)-imidazol-1-yl]-1H-pyrazolo[3,4-d]thiazol-5-yl}-amide] stands < 100 nM; under `O=C(Nc1nc2[nH]nc(-n3cncc3-c3ccccc3Cl)c2s1)C1CC1` [Cyclopropanecarboxylic acid {3-[5-(2-chloro-phenyl)-imidazol-1-yl]-1H-pyrazolo[3,4-d]thiazol-5-yl}-amide], < 100 nM.

On to `NC(=O)COc1ccc(-c2cncn2-c2n[nH]c3nc(NC(=O)C4CC4)sc23)c(Cl)c1` [Cyclopropanecarboxylic acid {3-[5-(4-carbamoylmethoxy-2-chloro-phenyl)-imidazol-1-yl]-1H-pyrazolo[3,4-d]thiazol-5-yl}-amide], for which the IC50 was < 100 nM.
